# Experimental data: patent US20220031641A1, “COMPOSITIONS AND METHODS FOR TREATING AND PREVENTING COGNITIVE DYSFUNCTION” (Pharmatrophix, Inc., priority 2019, published 2022)
# Read-outs that look alike come from different tables or passages of the source.
# B1: BDNF: brain-derived neurotrophic factor, recombinant protein, ligand of TrkB (protein, UniProt P23560 19-247, looked up)
# Neurotrophic factor BDNF …: APMKEANIRGQGGLAYPGVRTHGTLESVNGPKAGSRGLTSLADTFEHVIEELLDEDQKVRPNEENNKDADLYTSRVMLSSQVPLEPPLLFLLEEYKNYLDAANMSMRVRRHSDPARRGELSVCDSISEWVTAADKKTAVDMSGGTVTVLEKVPVSKGQLKQYFYETKCNPMGYTKEGCRGIDKRHWNSQCRTTQSYVRALTMDSKKRIGWRFIRIDTSCVCTLTIKRGR
# Assays:
# P6-8 mouse OPCs [1] = experiment: OPC proliferation index (EdU+/PDGFRa+) in cultures of murine OPCs; type: cell-based; conditions: 24-hour exposure; 0-1000 nM concentration range
# From the text: (§1) Cells were fixed at day 100 following induction and the percent of DAPI+ cells expressing the OPC marker PDGFRa was quantified. […] Green=PDGFRa, white=DAPI. Scale bar=10 μm. […] Cells were fixed at day 100 following induction and the percent of DAPI+ cells expressing the mature oligodendrocyte marker MBP was quantified. […] Red=MBP, white=DAPI. Scale bar=10 μm. […] White-dashed circle=lesioned area in the corpus callosum. Scale bar=20 μm. […] FIG. 5K-FIG. 5M show representative confocal images of proliferating OPCs as shown by EdU incorporation into PDGFRa+ cells in mouse OPC cultures treated with vehicle control (FIG. 5K), 50 nM BDNF (FIG. 5L) and 100 nM LM22A-4 (FIG. 5M).
# (§2) Thus, to therapeutically manipulate BDNF-TrkB signaling to promote oligodendrogenesis, we tested a small molecule TrkB partial agonist, LM22A-4. […] To determine if LM22A-4 could promote OPC proliferation and differentiation in a manner similar to BDNF, we compared the effects of recombinant BDNF, LM22A-4 or vehicle control in cultures of murine OPCs.
# P6-8 mouse OPCs [2] = experiment: Oligodendroglial differentiation (CC1+ cells) in murine OPC cultures; type: cell-based; conditions: seven-day exposure; BDNF 50 nM, LM22A-4 100 nM daily
# From the text: as §1, §2
# human iPSC-derived OPCs = experiment: In vitro oligodendrogenesis in human iPSC-derived OPCs (PDGFRa+, MBP+ cells); type: cell-based; conditions: day 25-35 of OPC induction; 20 ng/ml BDNF or 1000 nM LM22A-4; fixed at day 100
# From the text: as §1, §2
# [3] = system: lysolecithin-induced demyelination in the corpus callosum; experiment: Lysolecithin demyelination model, OPC proliferation and oligodendrogenesis in corpus callosum lesion; type: in vivo, mouse
# From the text: as §1
# To investigate the effects of LM22A-4 treatment on OPC proliferation and oligodendrogenesis in vivo, we next examined mice treated with either LM22A-4 or vehicle control in a well-established demyelination model. Stereotaxic injection of lysolecithin into white matter regions causes a focal, toxic, demyelinating injury; this leads to microglial activation and demyelination, followed by OPC proliferation, recruitment and migration into the lesion area. […]
# [4] = type: in vivo, mouse; conditions: LM22A-4 50 mg/kg i.p. daily P38-P62, tested P63
# Protocol: (§3) A single point indicates the g-ratio for a single axon. Approximately 100 axons were quantified and the mean g-ratio determined for each mouse. P-values (indicated on plots) were determined by a Student's t-test, comparing the mean g-ratio on a per mouse basis between groups. […] At P63, the Novel Object Recognition Test was performed in mice previously exposed to MTX chemotherapy or PBS vehicle control and later treated with LM22A-4 or vehicle control. Percent preference for novel object was measured as the percent time spent with novel object over the total time spent with either object (n=4 mice in each group). Statistical significance was determined by a one-sample t-test, where the average percent preference for the novel object for each group was measured against a hypothetical value of 50% chance an animal would interact with either object. […] Scale bars=2 μm. FIG. 6F-FIG. 6G show myelin microstructure data shown in FIG. 6C are shown as scatterplots of g-ratio as a function of axon caliber. […] LM22A-4 increases myelin sheath thickness in control mice. […] LM22A-4 rescues myelin deficits in mice exposed to juvenile MTX in small caliber axons (<0.5 μm; n=7 mice, p=0.005), medium caliber axons (0.5 μm-1.0 μm; n=7, p=0.006) and large caliber axons (>1.0 μm; n=7 mice; p=0.033) compared to mice exposed to MTX but treated with vehicle control. Data in FIG. 6A-FIG. 6E shown as mean±SEM, ns=p>0.05, * p<0.05, ** p<0.01 *** p<0.001 as determined by Student's t-test.
# (§4) The chemotherapy-induced neurological syndrome is characterized by decreased attention and memory function and this is recapitulated in the MTX mouse model used here. To test the hypothesis that BDNF to TrkB signaling could promote myelination and improve cognitive dysfunction after chemotherapy exposure, mice were subjected to the above MTX chemotherapy protocol, then treated systemically with the TrkB partial agonist LM22A-4 (50 mg/kg i.p. daily, P38-P62, FIG. 6A) or vehicle control, and analyzed at 24 hours after the final injection (P63) for changes in myelin microstructure and behavioral performance in the novel object recognition test.
# (§5) Myelin microstructure in the cingulum of the corpus callosum was examined by transmission electron microscopy. […] The myelin microstructural effects of LM22A-4 thus mimic activity-regulated changes in myelin microstructure, but would lack the circuit-specificity of the activity-regulated response. To test the influence of LM22A-4 on a behavioral measure of attention and memory function, the novel object recognition test was used. After brief introduction to two identical objects, mice are then exposed to one familiar object as well as a completely novel object after a time delay of 5-minutes. […] Treatment with LM22A-4 from P38-P62 rescues performance in the novel object recognition test in MTX treated mice as these mice spend a significant percentage of their time interacting with the novel object over the familiar object (MTX+vehicle: 47.94%±3.50%, p=0.5968 over 50%; PBS+vehicle: 63.37%±4.72%, p=0.0219 over 50%; MTX+LM22A-4: 62.81%±3.31%, p=0.0305 over 50%; PBS+LM22A-4: 68.93%±6.34%, p=0.0317 over 50%; FIG. 6E).
# [5] = system: myelinated axons in the cingulum of the corpus callosum; type: in vivo, mouse; conditions: for g-ratio: LM22A-4 50 mg/kg i.p. daily P38-P62, analysed P63
# Protocol: as §3, §4, §5
# TrkB receptor = TrkB receptor (Homo sapiens, UniProt Q16620); conditions: previously shown; cited from earlier work
# Sequence of TrkB receptor (Q16620 32-822): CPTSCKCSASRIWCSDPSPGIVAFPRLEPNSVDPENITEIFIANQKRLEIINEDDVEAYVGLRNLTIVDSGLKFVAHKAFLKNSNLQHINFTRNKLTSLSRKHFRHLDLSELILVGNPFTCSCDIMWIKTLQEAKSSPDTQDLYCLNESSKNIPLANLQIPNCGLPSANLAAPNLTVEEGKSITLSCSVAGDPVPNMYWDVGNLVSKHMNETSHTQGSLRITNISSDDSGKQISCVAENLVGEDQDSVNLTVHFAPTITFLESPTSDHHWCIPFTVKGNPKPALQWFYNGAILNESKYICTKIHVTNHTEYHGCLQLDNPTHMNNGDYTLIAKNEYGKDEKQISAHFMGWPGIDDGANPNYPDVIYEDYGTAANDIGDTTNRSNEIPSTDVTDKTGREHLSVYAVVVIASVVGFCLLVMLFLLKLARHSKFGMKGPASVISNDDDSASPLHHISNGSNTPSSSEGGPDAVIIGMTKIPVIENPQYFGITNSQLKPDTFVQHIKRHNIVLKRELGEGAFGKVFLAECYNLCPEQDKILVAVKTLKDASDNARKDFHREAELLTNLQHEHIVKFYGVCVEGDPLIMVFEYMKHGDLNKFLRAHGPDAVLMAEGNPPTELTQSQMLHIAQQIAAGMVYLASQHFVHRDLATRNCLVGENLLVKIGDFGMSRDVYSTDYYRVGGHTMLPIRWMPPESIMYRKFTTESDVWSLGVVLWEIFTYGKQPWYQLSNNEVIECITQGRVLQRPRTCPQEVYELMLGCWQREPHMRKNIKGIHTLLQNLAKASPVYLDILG
# BDNF protein = conditions: mouse, in vivo
# [6] = system: OPCs in the corpus callosum; conditions: MTX at P21, 28, 35; one month (P63) and 6 months (P203) after cessation; cited from earlier work
# [7] = BDNF protein; cited from earlier work
molecule,measurement,setting,value
"O=C(NCCO)c1cc(C(=O)NCCO)cc(C(=O)NCCO)c1 [LM22A-4, N,N′,N″-tris(2-hydroxyethyl)-1,3,5-benzenetricarboxamide]","proliferative index of OPCs (fraction of total cells in S phase, co-localization of PDGFRa with EdU)",P6-8 mouse OPCs [1],similarly increased the proliferative index of OPCs in the low nanomolar range and in a dose-dependent manner
same,"oligodendroglial differentiation, cells expressing CC1 relative to vehicle control",P6-8 mouse OPCs [2],similarly promoted oligodendroglial differentiation
same,in vitro oligodendrogenesis in human oligodendroglial lineage cells,human iPSC-derived OPCs,similarly promote in vitro oligodendrogenesis
same,density of EdU+/PDGFRa+ proliferating OPCs in lesioned area,[3]; 50 mg/kg i.p. for one week from day 7 after lysolecithin injection,1132±67.1 cells/mm3
same,density of EdU+/CC1+ newly generated mature oligodendrocytes in lesioned area,"[3]; 50 mg/kg, day 7 to 21 following lysolecithin injury",764.8±141.6 cells/mm3
same,percent preference for novel object,[4]; MTX-exposed mice,62.81%±3.31%
same,percent preference for novel object,[4]; PBS-exposed mice,68.93%±6.34%
same,g-ratio,"[5]; MTX-exposed mice (100 mg/kg i.p. P21, 28, 35)",0.733±0.017
same,myelin thickness by axon caliber,"[5]; MTX-treated mice, small (<0.5 μm), medium (0.5-1.0 μm), large (>1.0 μm) caliber axons","increased myelin thickness in small, medium and large caliber axons"
same,g-ratio,[5]; PBS-exposed mice,0.713±0.010
same,TrkB receptor activation,TrkB receptor,activate the TrkB receptor specifically
"CN(Cc1cnc2nc(N)nc(N)c2n1)c1ccc(C(=O)N[C@@H](CCC(=O)O)C(=O)O)cc1 [MTX, methotrexate]",corpus callosum BDNF protein levels,BDNF protein,5350 ± 1740 pg/mL
same,decrease in corpus callosum BDNF protein levels compared to PBS vehicle controls,BDNF protein,more than three-fold decrease
same,OPCs in the corpus callosum after MTX exposure,[6],lasting reduction of OPCs in the corpus callosum
"BDNF: brain-derived neurotrophic factor, recombinant protein, ligand of TrkB","proliferative index of OPCs (fraction of total cells in S phase, co-localization of PDGFRa with EdU)",P6-8 mouse OPCs [1],increased the proliferative index
same,"oligodendroglial differentiation, cells expressing CC1 relative to vehicle control",P6-8 mouse OPCs [2],similarly promoted oligodendroglial differentiation
same,in vitro oligodendrogenesis in human oligodendroglial lineage cells,human iPSC-derived OPCs,similarly promote in vitro oligodendrogenesis
B1,blood-brain-barrier penetration,[7],poor blood-brain-barrier penetration
same,plasma half-life,[7],short plasma half-life
